Reference: ChEMBL document CHEMBL2046303, “Discovery and Development of Potent LFA-1/ICAM-1 Antagonist SAR 1118 as an Ophthalmic Solution for Treating Dry Eye” (ACS Med Chem Lett, 2012)
Active and inactive are the calls of the source. No cut-off for these calls is given here.

Tests used:
[1] = target: T1, Intercellular adhesion molecule (ICAM-1), Integrin alpha-L/beta-2 (Homo sapiens, UniProt P05107+P05362+P20701); assay: Antagonist activity at LFA-1/ICAM-1 in human HuT-78 T-cells assessed as inhibition of cell adhesion after 1 hr by p-nitrophenyl n-acetyl-beta-D-glucosaminide method; format: functional, cell-based, HuT78
[2] = target: T1, Intercellular adhesion molecule (ICAM-1), Integrin alpha-L/beta-2; assay: Antagonist activity at LFA-1/ICAM-1 in human HuT-78 T-cells assessed as inhibition of cell adhesion after 1 hr by p-nitrophenyl n-acetyl-beta-D-glucosaminide method in presence of 10% human serum; format: functional, cell-based, HuT78
[3] = Clearance in Sprague-Dawley rat at 5 mg/kg, iv; format: ADME, organism-based; parameters: dose 5 mg/kg, route intravenous; conditions: in vivo
[4] = tested on: Canis familiaris; assay: Increase of mean schirmer's tear test in dog administered topically with 1% PBS solution tid for 12 weeks measured after 1 to 12 weeks; format: functional, Canis lupus familiaris
[5] = Metabolic stability in human liver microsomes assessed as compound remaining after 30 mins; format: ADME, Microsome; conditions: read-out: Stability
[6] = target: Cytochrome P450 3A4 (Homo sapiens, UniProt P08684); assay: Inhibition of CYP3A4; format: ADME
[7] = Metabolic stability in rat liver microsomes assessed as compound remaining after 30 mins; format: ADME, Microsome; conditions: read-out: Stability
[8] = target: Cytochrome P450 2C9 (Homo sapiens, UniProt P11712); assay: Inhibition of CYP2C9; format: ADME
[9] = tested on: Salmonella typhimurium; assay: Genotoxicity in Salmonella typhimurium by Ames test; format: toxicity, organism-based; conditions: salmonella enterica subsp. enterica serovar typhimurium
[10] = tested on: Rattus norvegicus; assay: AUC in Sprague-Dawley rat at 5 mg/kg, iv; format: ADME, organism-based, Plasma; parameters: dose 5 mg/kg, route intravenous; conditions: in vivo
[11] = Half life in Sprague-Dawley rat at 5 mg/kg, iv; format: ADME, organism-based; parameters: dose 5 mg/kg, route intravenous; conditions: in vivo
[12] = target: Intercellular adhesion molecule 1 (Homo sapiens) (UniProt P05362); assay: Inhibition of ICAM-1-mediated IL-10 release
[13] = target: Intercellular adhesion molecule 1 (Homo sapiens) (UniProt P05362); assay: Inhibition of ICAM-1-mediated MIP-1alpha release
[14] = target: Intercellular adhesion molecule 1 (Homo sapiens) (UniProt P05362); assay: Inhibition of ICAM-1-mediated IFNgamma release
[15] = target: Intercellular adhesion molecule 1 (Homo sapiens) (UniProt P05362); assay: Inhibition of ICAM-1-mediated IL-6 release
[16] = target: Intercellular adhesion molecule 1 (Homo sapiens) (UniProt P05362); assay: Inhibition of ICAM-1-mediated IL-1alpha release
[17] = target: Intercellular adhesion molecule 1 (Homo sapiens) (UniProt P05362); assay: Inhibition of ICAM-1-mediated IL-1beta release
[18] = Drug uptake in dog bulbar conjunctiva administered topically as ophthalmic solution after 30 mins; format: ADME, tissue-based, Canis lupus familiaris; conditions: in vivo, topical_or_ocular, 0.5 h
[19] = Drug uptake in rat cornea administered topically as ophthalmic solution after 30 mins; format: ADME, tissue-based; conditions: in vivo, topical_or_ocular, 0.5 h
[20] = Drug uptake in rat palpebral conjunctiva administered topically as ophthalmic solution after 30 mins; format: ADME, tissue-based; conditions: in vivo, topical_or_ocular, 0.5 h
[21] = Drug uptake in rat bulbar conjunctiva administered topically as ophthalmic solution after 30 mins; format: ADME; conditions: in vivo, topical_or_ocular, 0.5 h
[22] = Drug uptake in dog cornea administered topically as ophthalmic solution after 30 mins; format: ADME, tissue-based, Canis lupus familiaris; conditions: in vivo, topical_or_ocular, 0.5 h
[23] = Drug uptake in dog palpebral conjunctiva administered topically as ophthalmic solution after 30 mins; format: ADME, tissue-based, Canis lupus familiaris; conditions: in vivo, topical_or_ocular, 0.5 h
[24] = Solubility of the compound in phosphate-buffered saline; format: physicochemical

T1 sequence (P20701 whole entry): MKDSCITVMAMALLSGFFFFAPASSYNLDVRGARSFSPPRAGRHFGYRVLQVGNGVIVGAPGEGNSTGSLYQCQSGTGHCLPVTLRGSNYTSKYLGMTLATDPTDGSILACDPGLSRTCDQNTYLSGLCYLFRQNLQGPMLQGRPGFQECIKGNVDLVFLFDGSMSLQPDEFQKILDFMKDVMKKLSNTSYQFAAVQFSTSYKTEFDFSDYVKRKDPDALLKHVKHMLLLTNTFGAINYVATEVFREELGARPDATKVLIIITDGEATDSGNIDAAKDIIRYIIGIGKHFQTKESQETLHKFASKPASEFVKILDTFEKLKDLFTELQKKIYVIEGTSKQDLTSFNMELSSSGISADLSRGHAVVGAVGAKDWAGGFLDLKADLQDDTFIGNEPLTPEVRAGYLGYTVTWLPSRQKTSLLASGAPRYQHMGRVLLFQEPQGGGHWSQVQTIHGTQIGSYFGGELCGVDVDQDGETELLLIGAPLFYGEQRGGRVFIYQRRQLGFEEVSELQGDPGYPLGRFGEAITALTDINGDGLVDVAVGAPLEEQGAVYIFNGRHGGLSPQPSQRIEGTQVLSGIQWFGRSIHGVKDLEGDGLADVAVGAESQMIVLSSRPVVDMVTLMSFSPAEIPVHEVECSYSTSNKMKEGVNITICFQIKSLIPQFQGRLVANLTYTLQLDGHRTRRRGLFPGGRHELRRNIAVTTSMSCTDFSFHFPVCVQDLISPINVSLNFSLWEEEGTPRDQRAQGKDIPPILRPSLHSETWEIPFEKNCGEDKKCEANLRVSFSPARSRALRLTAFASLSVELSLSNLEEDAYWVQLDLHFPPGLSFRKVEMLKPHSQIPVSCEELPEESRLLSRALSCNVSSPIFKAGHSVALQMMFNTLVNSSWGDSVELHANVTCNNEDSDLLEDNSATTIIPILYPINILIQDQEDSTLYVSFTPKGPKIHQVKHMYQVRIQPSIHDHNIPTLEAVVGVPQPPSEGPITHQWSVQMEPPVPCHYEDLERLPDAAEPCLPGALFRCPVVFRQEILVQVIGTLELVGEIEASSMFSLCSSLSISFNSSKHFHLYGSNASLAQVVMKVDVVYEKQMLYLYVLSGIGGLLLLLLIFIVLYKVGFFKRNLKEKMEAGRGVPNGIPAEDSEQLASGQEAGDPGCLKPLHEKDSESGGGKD
T1 sequence (P05362 whole entry): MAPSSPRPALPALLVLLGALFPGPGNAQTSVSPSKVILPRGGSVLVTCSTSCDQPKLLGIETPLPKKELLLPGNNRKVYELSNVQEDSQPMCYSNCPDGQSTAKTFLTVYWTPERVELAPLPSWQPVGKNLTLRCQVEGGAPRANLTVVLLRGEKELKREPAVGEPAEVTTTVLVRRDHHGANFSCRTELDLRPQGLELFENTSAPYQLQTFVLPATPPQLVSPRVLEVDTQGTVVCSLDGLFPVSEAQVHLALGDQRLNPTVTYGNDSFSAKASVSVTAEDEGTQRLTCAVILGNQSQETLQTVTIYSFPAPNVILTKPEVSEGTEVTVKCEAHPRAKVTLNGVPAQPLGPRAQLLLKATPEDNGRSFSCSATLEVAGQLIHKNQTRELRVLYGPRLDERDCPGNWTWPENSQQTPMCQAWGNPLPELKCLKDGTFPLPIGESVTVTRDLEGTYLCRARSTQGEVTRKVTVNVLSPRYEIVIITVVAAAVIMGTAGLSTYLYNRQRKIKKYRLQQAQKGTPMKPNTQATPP
T1 sequence (P05107 whole entry): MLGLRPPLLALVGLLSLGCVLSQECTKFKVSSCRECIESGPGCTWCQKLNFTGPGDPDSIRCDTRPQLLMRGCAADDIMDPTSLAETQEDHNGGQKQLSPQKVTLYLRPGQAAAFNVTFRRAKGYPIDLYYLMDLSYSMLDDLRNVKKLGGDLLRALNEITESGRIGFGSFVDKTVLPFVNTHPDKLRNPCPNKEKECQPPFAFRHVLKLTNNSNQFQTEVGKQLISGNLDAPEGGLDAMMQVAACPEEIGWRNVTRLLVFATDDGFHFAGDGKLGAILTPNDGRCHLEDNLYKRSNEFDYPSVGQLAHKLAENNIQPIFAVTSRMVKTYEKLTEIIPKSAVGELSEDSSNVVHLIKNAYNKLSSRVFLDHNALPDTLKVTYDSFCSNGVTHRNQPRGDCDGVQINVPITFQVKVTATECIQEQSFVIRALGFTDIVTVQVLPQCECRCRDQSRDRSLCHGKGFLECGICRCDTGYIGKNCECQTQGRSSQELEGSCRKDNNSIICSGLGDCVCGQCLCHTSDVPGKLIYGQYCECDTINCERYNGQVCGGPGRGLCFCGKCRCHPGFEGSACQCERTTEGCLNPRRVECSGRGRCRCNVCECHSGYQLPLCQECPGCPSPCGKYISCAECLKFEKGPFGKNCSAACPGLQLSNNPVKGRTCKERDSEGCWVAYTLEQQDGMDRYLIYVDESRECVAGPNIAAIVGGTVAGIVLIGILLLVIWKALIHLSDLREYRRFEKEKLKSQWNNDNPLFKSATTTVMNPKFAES
Sequence of Intercellular adhesion molecule 1 (Homo sapiens) (P05362 whole entry): as the sequence (P05362 whole entry) above
Sequence of Cytochrome P450 3A4 (P08684 whole entry): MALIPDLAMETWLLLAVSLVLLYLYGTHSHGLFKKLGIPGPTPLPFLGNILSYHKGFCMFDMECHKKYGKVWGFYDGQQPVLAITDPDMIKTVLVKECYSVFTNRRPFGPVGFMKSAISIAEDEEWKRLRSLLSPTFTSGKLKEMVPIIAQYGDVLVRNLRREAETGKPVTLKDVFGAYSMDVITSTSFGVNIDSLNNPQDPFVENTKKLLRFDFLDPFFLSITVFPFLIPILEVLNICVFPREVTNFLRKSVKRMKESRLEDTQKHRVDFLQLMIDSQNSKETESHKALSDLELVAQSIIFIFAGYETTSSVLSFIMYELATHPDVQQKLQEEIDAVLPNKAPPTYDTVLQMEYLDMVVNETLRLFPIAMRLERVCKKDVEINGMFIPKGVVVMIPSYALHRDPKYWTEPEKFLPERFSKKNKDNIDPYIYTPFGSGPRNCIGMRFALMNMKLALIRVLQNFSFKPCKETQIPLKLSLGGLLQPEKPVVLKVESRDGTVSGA
Sequence of Cytochrome P450 2C9 (P11712 whole entry): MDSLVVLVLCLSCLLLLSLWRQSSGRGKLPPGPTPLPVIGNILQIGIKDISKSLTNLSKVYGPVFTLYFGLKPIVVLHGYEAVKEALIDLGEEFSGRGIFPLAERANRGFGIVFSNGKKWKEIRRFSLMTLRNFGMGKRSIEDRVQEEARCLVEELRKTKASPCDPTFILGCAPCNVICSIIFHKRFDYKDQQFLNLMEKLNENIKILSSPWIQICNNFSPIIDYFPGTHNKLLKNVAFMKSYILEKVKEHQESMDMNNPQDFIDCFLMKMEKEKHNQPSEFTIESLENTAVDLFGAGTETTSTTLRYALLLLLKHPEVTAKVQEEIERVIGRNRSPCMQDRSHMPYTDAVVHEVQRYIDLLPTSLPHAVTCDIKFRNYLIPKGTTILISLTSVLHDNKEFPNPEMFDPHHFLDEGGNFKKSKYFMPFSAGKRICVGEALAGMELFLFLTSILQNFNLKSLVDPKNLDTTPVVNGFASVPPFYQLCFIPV

| SMILES | IC50 [1] [nM] | IC50 [2] [nM] | clearance [3] [mL/min/kg] | remaining at 0.5 h [5] [%] | remaining at 0.5 h [7] [%] | AUC [10] [ng·h/mL] | half-life [11] [min] | other results |
| --- | --- | --- | --- | --- | --- | --- | --- | --- |
| C[S+]([O-])c1cncc(CC(NC(=O)c2c(Cl)cc3c(c2Cl)CCN(C(=O)c2ccc4ccoc4c2)C3)C(=O)O)c1 (racemic) | 57 | 50 | 121 | > 95 | > 95 | 753 | 16.2 |  |
| CS(=O)(=O)c1cccc(C[C@H](NC(=O)c2c(Cl)cc3c(c2Cl)CCN(C(=O)c2ccc4ccoc4c2)C3)C(=O)O)c1 [listing 2 of 2 here] |  |  |  |  |  |  |  | inhibition [12]: Active; inhibition [13]: Active; inhibition [14]: Active; inhibition [15]: Active; inhibition [16]: Active; inhibition [17]: Active |
| CS(=O)(=O)c1cccc(C[C@H](N[14C](=O)c2c(Cl)cc3c(c2Cl)CCN(C(=O)c2ccc4ccoc4c2)C3)C(=O)O)c1 |  |  |  |  |  |  |  | Drug uptake [18]: Active; Drug uptake [19]: Active; Drug uptake [20]: Active; Drug uptake [21]: Active; Drug uptake [22]: Active; Drug uptake [23]: Active |
| CS(=O)(=O)c1cc(C[C@H](NC(=O)c2c(Cl)cc3c(c2Cl)CCN(C(=O)c2ccc4ccoc4c2)C3)C(=O)O)ccc1Cl | 120 | 2000 |  |  |  |  |  |  |
| CS(=O)(=O)c1ccc(Cl)c(C[C@H](NC(=O)c2c(Cl)cc3c(c2Cl)CCN(C(=O)c2ccc4ccoc4c2)C3)C(=O)O)c1 | 120 |  |  |  |  |  |  |  |
| CS(=O)(=O)c1cncc(C[C@H](NC(=O)c2c(Cl)cc3c(c2Cl)CCN(C(=O)c2ccc4ccoc4c2)C3)C(=O)O)c1 | 39 | 32 | 73.5 | > 95 | > 95 | 1280 | 37.2 |  |
| CS(=O)(=O)c1ccccc1C[C@H](NC(=O)c1c(Cl)cc2c(c1Cl)CCN(C(=O)c1ccc(Cl)cc1)C2)C(=O)O | > 1000 |  |  |  |  |  |  |  |
| CS(=O)(=O)c1cccc(C[C@H](NC(=O)c2c(Cl)cc3c(c2Cl)CCN(C(=O)c2ccc4ccoc4c2)C3)C(=O)O)c1Cl | 800 |  |  |  |  |  |  |  |
| CP(C)(=O)c1cccc(C[C@H](NC(=O)c2c(Cl)cc3c(c2Cl)CCN(C(=O)c2ccc4ccoc4c2)C3)C(=O)O)c1 | 58 | 490 | 37 | > 95 | > 95 | 2260 | 22.2 |  |
| CS(=O)(=O)c1cccc(C[C@H](NC(=O)c2c(Cl)cc3c(c2Cl)CCN(C(=O)c2ccc4ccoc4c2)C3)C(=O)[O-])c1.[Na+] [LIFITEGRAST SODIUM] |  |  |  |  |  |  |  | solubility [24]: ≥ 200 mg/mL |
| CS(=O)(=O)c1ccc(C[C@H](NC(=O)c2c(Cl)cc3c(c2Cl)CCN(C(=O)c2ccc(Cl)cc2)C3)C(=O)O)cc1 | 250 |  |  |  |  |  |  |  |
| CC(C)S(=O)(=O)c1cccc(C[C@H](NC(=O)c2c(Cl)cc3c(c2Cl)CCN(C(=O)c2ccc4ccoc4c2)C3)C(=O)O)c1 | 200 | > 10000 |  |  |  |  |  |  |
| CS(=O)(=O)c1ccc(C[C@H](NC(=O)c2c(Cl)cc3c(c2Cl)CCN(C(=O)c2ccc4ccoc4c2)C3)C(=O)O)o1 |  |  | 60 | 65 | > 95 | 1510 | 25.8 |  |

Further lines, with some results ahead:

| IC50 [1] [nM] | IC50 [2] [nM] | clearance [3] [mL/min/kg] | remaining at 0.5 h [5] [%] | remaining at 0.5 h [7] [%] | AUC [10] [ng·h/mL] | half-life [11] [min] | SMILES | other results |
| --- | --- | --- | --- | --- | --- | --- | --- | --- |
| 2 | 180 |  |  |  |  |  | CCS(=O)(=O)c1cccc(C[C@H](NC(=O)c2c(Cl)cc3c(c2Cl)CCN(C(=O)c2ccc4ccoc4c2)C3)C(=O)O)c1 |  |
| 9 | 74 | 139 | 71 | > 95 | 705 | 46.8 | CS(=O)(=O)c1cccc(C[C@H](NC(=O)c2c(Cl)cc3c(c2Cl)CCN(C(=O)c2ccc4ccoc4c2)C3)C(=O)O)c1 [listing 1 of 2 here] | Activity [4]: 3.4 mm; IC50 [6]: > 20 µM; IC50 [8]: 3 µM; Activity [9]: Non-toxic |
| 12 | 5600 |  |  |  |  |  | CC(=O)c1cccc(C[C@H](NC(=O)c2c(Cl)cc3c(c2Cl)CCN(C(=O)c2ccc4ccoc4c2)C3)C(=O)O)c1 |  |
| 10 | 200 |  |  |  |  |  | CS(=O)(=O)c1cc(Cl)cc(C[C@H](NC(=O)c2c(Cl)cc3c(c2Cl)CCN(C(=O)c2ccc4ccoc4c2)C3)C(=O)O)c1 |  |
| 6 | 240 | 74.3 | 92 | > 95 | 1130 | 16.2 | CS(=O)(=O)c1ccc(C[C@H](NC(=O)c2c(Cl)cc3c(c2Cl)CCN(C(=O)c2ccc(Cl)cc2)C3)C(=O)O)o1 |  |
| 4 | 200 | 34.4 | 71 | > 95 | 2430 | 61.8 | NS(=O)(=O)c1cccc(C[C@H](NC(=O)c2c(Cl)cc3c(c2Cl)CCN(C(=O)c2ccc4ccoc4c2)C3)C(=O)O)c1 |  |
| 10 | 4000 |  |  |  |  |  | C[C@@H](O)c1cccc(C[C@H](NC(=O)c2c(Cl)cc3c(c2Cl)CCN(C(=O)c2ccc4ccoc4c2)C3)C(=O)O)c1 |  |
| 13 | 640 |  |  |  |  |  | CNS(=O)(=O)c1cccc(C[C@H](NC(=O)c2c(Cl)cc3c(c2Cl)CCN(C(=O)c2ccc4ccoc4c2)C3)C(=O)O)c1 |  |
| 14 | 940 |  |  |  |  |  | C[C@H](O)c1cccc(C[C@H](NC(=O)c2c(Cl)cc3c(c2Cl)CCN(C(=O)c2ccc4ccoc4c2)C3)C(=O)O)c1 |  |
| 3 | 200 |  |  |  |  |  | CS(=O)(=O)c1cccc(C[C@H](NC(=O)c2c(Cl)cc3c(c2Cl)CCN(C(=O)c2ccc(Cl)cc2)C3)C(=O)O)c1 |  |
| 10 | > 10000 |  |  |  |  |  | CC(C)c1cccc(C[C@H](NC(=O)c2c(Cl)cc3c(c2Cl)CCN(C(=O)c2ccc(Cl)cc2)C3)C(=O)O)c1 |  |
| 10 | 260 | 80.5 | > 95 | > 95 | 1190 | 39 | CS(=O)(=O)c1cc(F)cc(C[C@H](NC(=O)c2c(Cl)cc3c(c2Cl)CCN(C(=O)c2ccc4ccoc4c2)C3)C(=O)O)c1 |  |
| 10 | > 10000 |  |  |  |  |  | CN(C)S(=O)(=O)c1cccc(C[C@H](NC(=O)c2c(Cl)cc3c(c2Cl)CCN(C(=O)c2ccc4ccoc4c2)C3)C(=O)O)c1 |  |
